Source: patent publication US20050288255A1, “Modulation of lysophosphatidylcholine and treatment of diet-induced conditions” (priority 2004, published 2005)

Tests used:
Format in all cases: cell-based
HepG2 cells = test: Insulin-stimulated [14C]glucose conversion to glycogen in HepG2 cells with varying LPC; conditions: 100 nM insulin, under reduced levels of lysophosphatidylcholine, FIG. 5(a)
Experimental: (§1) Effects of LPC on glucose metabolism were assessed using (a) HepG2 cells as a model of liver cells, (b) differentiated L6 myotubes as a model of skeletal muscle cells and (c) differentiated 3T3L1 cells as a model of adipocytes. To assess usage of glucose for glycogen biosynthesis, cells were incubated in Krebs Ringer Hepes medium with 5 mM [^14C]glucose, 100 nM insulin, and varying concentrations of LPC. At the end of the incubation period, the cells were washed and detached from the plates with 30% KOH. Carrier glycogen was then added to the cell lysate at a concentration of 40 mg/ml and then boiled for 30 min. Glycogen was precipitated from the solution by the addition of 800 μl 95% ice-cold ethanol and centrifuged at 1000×g. The pellet was re-suspended in buffer, and an aliquot of the sample was counted in a scintillation counter to determine the amount of [^14C]glucose converted to glycogen. Glucose metabolism by differentiated 3T3L1 cells was assessed based on cellular uptake of [^3H]deoxyglucose. The 3T3L1 cells were incubated in Krebs Ringer Hepes medium with 5 mM [^3H]deoxyglucose, 100 nM insulin, and varying concentration of LPC. Glucose uptake was assessed based on cellular accumulation of [^3H]deoxyglucose after a 30 min incubation period.

L6 myotube = test: Insulin-stimulated [14C]glucose conversion to glycogen in differentiated L6 myotubes with varying LPC; conditions: 100 nM insulin, under reduced levels of lysophosphatidylcholine, FIG. 5(b)
Experimental: as §1

3T3L1 adipocytes = test: Insulin-stimulated [3H]deoxyglucose uptake in differentiated 3T3L1 adipocytes with varying LPC; conditions: 100 nM insulin, 30 min, under reduced levels of lysophosphatidylcholine, FIG. 5(c)
Experimental: as §1

Measured: insulin-stimulated glucose metabolism

lysophosphatidylcholine
increased: all assays above
